Literature values in patent US6670356B2, “Analogs of galanthamine and lycoramine as modulators of nicotinic receptors” (priority 1999, dated 2003).

How the values were obtained:
[1] = tested on: nicotinic receptors of PC12 cells
[2] = tested on: superior cervical ganglion; conditions: cat

COc1ccc2c3c1O[C@H]1C[C@@H](O)C=C[C@@]31CCN(C)C2 [galanthamine]
Twitch potentiating effects relative to neostigmine or physostigmine (gastrocnemius; nerve muscle preparation, quoted from the cited authors' discussion): 1/10 | Twitch potentiation relative to neostigmine or physostigmine (gastrocnemius; quoted from the cited authors): 1/10 | Mode of action at nicotinic receptors ([1]; PC12 cells): noncompetitive agonists | Single channel activity after incubation with FK1 (competitive monoclonal antibody to physostigmine) ([1]; PC12 cells): neither physostigmine nor galanthamine could induce | Whole-cell currents evoked ([1]; PC12 cells): do not evoke sizable whole-cell currents | Channel activation ([1]; inside-out patches from PC 12 cells): cause some channel activation | Anticholinesterase activity relative to neostigmine or physostigmine (cholinesterase; quoted from the cited authors' discussion): 1/100 | Preservation of the ganglionic surface potential ([2]; direct recordings, treated ganglia): preservation of the surface potential is shown | Inhibition of hexamethonium (C6) induced ganglionic blockade ([2]; intra-arterially, 250 micrograms): substantially inhibited

COc1ccc2c3c1O[C@H]1[C@@H](O)C=C[C@H]4[C@@H](C2)N(C)CC[C@@]341 [codeine]
Whole-cell currents evoked ([1]; PC12 cells): do not evoke sizable whole-cell currents

CN(C)C(=O)Oc1cccc([N+](C)(C)C)c1 [neostigmine]
IC 50 for cholinesterase inhibition, times lower than for galanthamine (cholinesterase; rat brain, erythrocytes, or gastrocnemius homogenate): ~200 times lower
